The values below come from US11292781B2, “Pyrimidine tricyclic enone derivatives for inhibition of ROR-gamma and other uses” (REATA PHARMACEUTICALS, INC., priority 2016, dated 2022).

The test system of experiment [1] is Nrf2 transcription factor (GST ARE luciferase reporter in AREc32 cells). The experiment is described as follows: AREc32 luciferase reporter assay. The format is cell-based, human. The settings on record: EC2×: concentration required to increase GST ARE luciferase reporter activity by 2-fold, 19 hours. The gist of the method:
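AREc32 cells (MCF-7 carrying luciferase under eight rat GSTA2 ARE copies) treated with compound; luciferase measured by ONE-Glo luminescence. Signal normalised to DMSO wells as fold-induction, fitted by variable-slope log(agonist)-response regression, with EC2× interpolated from the curve.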

In experiment [2] the test system is IL-17A levels in primary human CD4+ T cells differentiated into Th17 cells. The experiment is described as follows: IL-17 release from differentiated primary human T-cells (IL-17A HTRF). The experiment is classed as cell-based. The conditions noted are these: primary human CD4+ T cells, Th17 differentiation, 46-hour incubation; read-out: hIL17 IC50. The method, then:
C. IL-17 Release from Differentiated Primary Human T-Cells and Cell Viability Primary human cryopreserved CD4+ T Cells (Lonza, donor #0000402103) were plated in Lymphocyte Growth Medium-3 (LGM-3, Lonza) according to the manufacturer's recommendations, and allowed to recover for approximately 3 hours at 37° C. with 5% CO2 in a humidified atmosphere. […] Triplicate wells were plated for each test condition. DMSO (final concentration ≤0.1%) was used as the vehicle. Immediately after plating, CD4+ T cells were activated by adding Dynabeads Human T-Activator CD3/CD28 (Life Technologies; bead-to-cell ratio of 1:2.5) and differentiated into Th17 cells by adding a mixture of the following cytokines: transforming growth factor-β (TGF-β, 5 ng/mL), IL-6 (20 ng/mL), IL-23 (20 ng/mL), and […] (10 ng/mL). Undifferentiated control cells received only cytokine IL-2 (50 ng/mL). All human recombinant cytokines were purchased from R&D Systems. Following a 46-hour incubation at 37° C. with 5% CO2 in a humidified atmosphere, the plates were centrifuged for 3 minutes at 250×g, and half of the supernatant was transferred to a new plate to be used in the IL-17A assay (see below). Cell viability was assessed in the original plate using the CyQuant Direct Assay (Life Technologies). CyQuant values from test compound samples were normalized to those from DMSO-treated samples. The concentration of IL-17A in the supernatant was measured using the Homogeneous Time-Resolved Fluorescence (HTRF) assay (Cisbio Bioassays) according to the manufacturer's protocol. The assay was performed at room temperature in low volume, solid white 384-well plates (Greiner Bio-One). […] A non-linear regression analysis with log (inhibitor) vs. normalized response using a variable slope was applied to fit the data and determine the IC50 values for inhibition of IL-17A levels and cell viability.
(Time-resolved FRET reads energy transfer from a long-lived donor to a nearby acceptor.)

Turning to `C[C@H]1C(=O)C(C#N)=C[C@@]2(C)c3nc(-c4ncnc5ccccc45)nc(-c4ccc(F)cc4)c3CC[C@H]12` [T114], the “HRF2 ARE 2×” value in experiment [1] is 484 nM. In experiment [2], the IC50 (usually the midpoint of a concentration-inhibition curve) came to 46 nM.
On the same counts, the results for `C[C@H]1C(=O)C(C#N)=C[C@@]2(C)c3nc(-c4cc(CF)nc5ccccc45)nc(-c4ccccc4F)c3CC[C@H]12` [T115] are 260 nM and 14 nM.
On to `C[C@H]1C(=O)C(C#N)=C[C@@]2(C)c3nc(-c4cc(C=O)nc5ccccc45)nc(-c4ccccc4F)c3CC[C@H]12` [T116], for which the “HRF2 ARE 2×” value in experiment [1] was 303 nM. Further, the IC50 in experiment [2] was 65 nM.
Consider `CC(=O)OCc1cc(-c2nc(-c3ccccc3F)c3c(n2)[C@]2(C)C=C(C#N)C(=O)[C@H](C)[C@H]2CC3)c2ccccc2n1` [T117], for which, in experiment [1], the “HRF2 ARE 2×” value is reported as 232 nM. Further, the IC50 in experiment [2] is 58 nM.
As for `Cc1cc(-c2nc(-c3ccccc3F)c3c(n2)[C@]2(C)C=C(C#N)C(=O)C(C)(C)[C@H]2CC3)c2ccccc2n1` [T119], the “HRF2 ARE 2×” value in experiment [1] worked out at 351 nM. Also, in experiment [2], the IC50 was found to be 37 nM.
With `C[C@H]1C(=O)C(C#N)=C[C@@]2(C)c3nc(-c4cc(CF)nc5ccccc45)nc(OC4CCCC4)c3CC[C@H]12` [T120], in experiment [1], the “HRF2 ARE 2×” value is 334 nM. Also, the IC50 in experiment [2] was 29 nM.
`C[C@H]1C(=O)C(C#N)=C[C@@]2(C)c3nc(-c4ccnc5c(F)cccc45)nc(OC4CCCC4)c3CC[C@H]12` [T121]: the “HRF2 ARE 2×” value in experiment [1] worked out at 390 nM. Moreover, the IC50 in experiment [2] came to 36 nM.
`CC1(C)C(=O)C(C#N)=C[C@@]2(C)c3nc(-c4cc(CF)nc5ccccc45)nc(-c4ccccc4F)c3CC[C@H]12` [T122]: the “HRF2 ARE 2×” value in experiment [1] came out at 402 nM. In addition, in experiment [2], the IC50 was 31 nM.
On the same counts, the results for `CC(C)c1cc(-c2nc(-c3ccccc3F)c3c(n2)[C@]2(C)C=C(C#N)C(=O)[C@H](C)[C@H]2CC3)c2ccccc2n1` [T123] are 371 nM and 20 nM.
For `CCC[C@@]1(C)C(=O)C(C#N)=C[C@@]2(C)c3nc(-c4ccnc5ccccc45)nc(-c4ccccc4F)c3CC[C@H]12` [T124], in that order: 220 nM and 22 nM.
For `CC1(C)C(=O)C(C#N)=C[C@@]2(C)c3nc(-c4ccnc(C5CC5)c4)nc(-c4ccccc4F)c3CC[C@H]12` [T125], in that order: 549 nM and 27 nM.
In the case of `CC[C@@]1(C)C(=O)C(C#N)=C[C@@]2(C)c3nc(-c4ccnc5ccccc45)nc(-c4ccccc4F)c3CC[C@H]12` [T126], in experiment [1], the “HRF2 ARE 2×” value amounted to 280 nM. For the same compound, the IC50 in experiment [2] was found to be 36 nM.
On the same counts, the results for `CC1(C)C(=O)C(C#N)=C[C@@]2(C)c3nc(-c4ccnc5c(F)cccc45)nc(-c4ccccc4F)c3CC[C@H]12` [T127] are 343 nM and 36 nM.
`C[C@H]1C(=O)[C@@]2(C#N)O[C@H]2[C@@]2(C)c3nc(-c4ccnc5ccccc45)nc(-c4ccccc4F)c3CC[C@H]12` [T132]: in experiment [1], the “HRF2 ARE 2×” value came out at 437 nM. Also, the IC50 in experiment [2] amounted to 74 nM.
For `C[C@]1(CCCO)C(=O)C(C#N)=C[C@@]2(C)c3nc(-c4ccnc(C5CC5)c4)nc(-c4ccccc4F)c3CC[C@H]12` [T136], in that order: 518 nM and 25 nM.
For the compound `CCC[C@@]1(C)C(=O)C(C#N)=C[C@@]2(C)c3nc(-c4ccnc(C5CC5)c4)nc(-c4ccccc4F)c3CC[C@H]12` [T137], the “HRF2 ARE 2×” value in experiment [1] stood at 274 nM. The IC50 in experiment [2] turned out to be 9 nM.
Turning to `C[C@H]1C(=O)C(C#N)=C[C@@]2(C)c3nc(-c4ccnc5ccccc45)nc(N4CCCC4)c3CC[C@H]12` [T138], the “HRF2 ARE 2×” value in experiment [1] worked out at 641 nM. In addition, the IC50 in experiment [2] was 167 nM.
Turning to `C[C@H]1C(=O)C(C#N)=C[C@@]2(C)c3nc(-c4ccc(C5CC5)nc4)nc(-c4ccccc4F)c3CC[C@H]12` [T140], in experiment [1], the “HRF2 ARE 2×” value is given as 451 nM. Further, the IC50 in experiment [2] came out at 26 nM.
On the same counts, the results for `C[C@H]1C(=O)C(C#N)=C[C@@]2(C)c3nc(-c4ccc(-c5ccccc5)nc4)nc(-c4ccccc4F)c3CC[C@H]12` [T141] are 557 nM and 22 nM.
Turning to `C[C@H]1C(=O)C(C#N)=C[C@@]2(C)c3nc(-c4ccc(CCS(C)(=O)=O)nc4)nc(-c4ccccc4F)c3CC[C@H]12` [T142], in experiment [1], the “HRF2 ARE 2×” value is recorded as 217 nM. The IC50 in experiment [2] worked out at 77 nM.
On the same counts, the results for `C[C@H]1C(=O)C(C#N)=C[C@@]2(C)c3nc(-c4ccnc(CS(C)(=O)=O)c4)nc(-c4ccccc4F)c3CC[C@H]12` [T143] are 538 nM and 94 nM.
On to `C[C@H]1C(=O)C(C#N)=C[C@@]2(C)c3nc(-c4ccnc(CCS(C)(=O)=O)c4)nc(-c4ccccc4F)c3CC[C@H]12` [T144], for which the “HRF2 ARE 2×” value in experiment [1] was 299 nM. Also, the IC50 in experiment [2] came out at 72 nM.
In the case of `C[C@H]1C(=O)C(C#N)=C[C@@]2(c3ccccc3)c3nc(-c4ccnc5ccccc45)nc(-c4ccccc4F)c3CC[C@H]12` [T148], in experiment [1], the “HRF2 ARE 2×” value was 1758 nM. In experiment [2], the IC50 was found to be 77 nM.
Consider `CC1(C)C(=O)C(C#N)=C[C@@]2(C)c3nc(-c4cccc5ncccc45)nc(-c4ccccc4F)c3CC[C@H]12` [T149], for which the “HRF2 ARE 2×” value in experiment [1] is given as 330 nM. In addition, the IC50 in experiment [2] came to 14 nM.
For `CCOC(=O)CCc1cc(-c2nc(-c3ccccc3F)c3c(n2)[C@]2(C)C=C(C#N)C(=O)[C@H](C)[C@H]2CC3)ccn1` [T151], in that order: 1111 nM and 54 nM.
As for `C[C@H]1C(=O)C(C#N)=C[C@@]2(C)c3nc(-c4ccnc(CCC(=O)N(C)C)c4)nc(-c4ccccc4F)c3CC[C@H]12` [T152], the “HRF2 ARE 2×” value in experiment [1] is 323 nM. For the same compound, the IC50 in experiment [2] amounted to 46 nM.
As to `CCS(=O)(=O)CCc1cc(-c2nc(-c3ccccc3F)c3c(n2)[C@]2(C)C=C(C#N)C(=O)[C@H](C)[C@H]2CC3)ccn1` [T153], the “HRF2 ARE 2×” value in experiment [1] is on record as 282 nM. In addition, the IC50 in experiment [2] is 52 nM.
For `CCS(=O)(=O)Cc1cc(-c2nc(-c3ccccc3F)c3c(n2)[C@]2(C)C=C(C#N)C(=O)[C@H](C)[C@H]2CC3)ccn1` [T154], in that order: 469 nM and 65 nM.
On the same counts, the results for `CCC[C@@]12C=C(C#N)C(=O)C[C@H]1CCc1c(-c3ccccc3F)nc(-c3ccnc(CF)c3)nc12` [T155] are 267 nM and 71 nM.
On the same counts, the results for `CCC[C@@]12C=C(C#N)C(=O)C[C@H]1CCc1c(-c3ccccc3F)nc(-c3ccnc4ccccc34)nc12` [T156] are 333 nM and 54 nM.
As to `C[C@]1(CC2CC2)C(=O)C(C#N)=C[C@@]2(C)c3nc(-c4ccnc5ccccc45)nc(-c4ccccc4F)c3CC[C@H]12` [T157], the “HRF2 ARE 2×” value in experiment [1] is given as 304 nM. In addition, in experiment [2], the IC50 turned out to be 23 nM.
For the compound `CCC[C@H]1C(=O)C(C#N)=C[C@@]2(C)c3nc(-c4cccc5ncccc45)nc(-c4ccccc4F)c3CC[C@H]12` [T159], the “HRF2 ARE 2×” value in experiment [1] was found to be 337 nM. For the same compound, the 50% inhibitory concentration (IC50) in experiment [2] turned out to be 22 nM.
For `CC(C)c1cccc(-c2nc(-c3ccnc4ccccc34)nc3c2CC[C@@H]2[C@@H](C)C(=O)C(C#N)=C[C@@]32C)c1` [T160], in that order: 418 nM and 22 nM.
Take `C[C@H]1C(=O)C(C#N)=C[C@@]2(C)c3nc(-c4ccnc5ccccc45)nc(-c4cccc(-c5ccccc5)c4)c3CC[C@H]12` [T162]: in experiment [1], the “HRF2 ARE 2×” value stood at 601 nM. Moreover, in experiment [2], the IC50 stood at 50 nM.
For `CC(C)CC[C@@]12C=C(C#N)C(=O)C[C@H]1CCc1c(-c3ccccc3F)nc(-c3ccnc4ccccc34)nc12` [T164], in that order: 1059 nM and 352 nM.
Turning to `CC(C)CC[C@@]12C=C(C#N)C(=O)C[C@H]1CCc1c(-c3ccccc3F)nc(-c3ccnc(CF)c3)nc12` [T165], the “HRF2 ARE 2×” value in experiment [1] is on record as 863 nM. Further, the IC50 in experiment [2] was 65 nM.
For `C=C(C)C[C@@]1(C)C(=O)C(C#N)=C[C@@]2(C)c3nc(-c4ccnc5ccccc45)nc(-c4ccccc4F)c3CC[C@H]12` [T166], the “HRF2 ARE 2×” value in experiment [1] was 878 nM. Also, the IC50 in experiment [2] was 31 nM.
Regarding `CCC[C@@]12C=C(C#N)C(=O)C[C@H]1CCc1c(-c3ccccc3F)nc(-c3ccnc(C4CC4)c3)nc12` [T167], the “HRF2 ARE 2×” value in experiment [1] turned out to be 493 nM. In experiment [2], the IC50 was 106 nM.
Take `CCC[C@H]1C(=O)C(C#N)=C[C@@]2(CCC)c3nc(-c4ccnc(C5CC5)c4)nc(-c4ccccc4F)c3CC[C@H]12` [T168]: the “HRF2 ARE 2×” value in experiment [1] worked out at 1239 nM. Besides, in experiment [2], the IC50 stood at 32 nM.
For `C[C@@H]1C(=O)C(C#N)=C[C@@]2(C)c3nc(-c4ccnc5ccccc45)nc(-c4ccccc4F)c3CC[C@@H]12` [T175], in that order: over 2000 nM and 329 nM.
